Measured values: paper PMC9782626, “Copper(II) Complexes of 5–Fluoro–Salicylaldehyde: Synthesis, Characterization, Antioxidant Properties, Interaction with DNA and Serum Albumins” (Molecules, 2022)

Experiments:
[1] = test system: EB–DNA conjugate (CT DNA); test: EB-displacement studies (fluorescence of EB-DNA conjugate); type: binding, calf; conditions: for Stern–Volmer constant Ksv (EB–DNA) / ΔΙ/Ιο, percentage of EB–DNA fluorescence quenching: [EB] = 20 µM, [DNA] = 26 µM; for ΔΙ/Ιο, percentage of EB–DNA fluorescence quenching: 592 nm; for EB–DNA quenching constant kq: from KSV with τo = 23 ns; for EB–DNA relative fluorescence emission intensity I/Io remaining (% of initial): λemission = 592 nm, final value, r up to 0.36
Source text: EB is a well-known indicator of DNA intercalation, since its insertion in-between adjacent DNA base pairs may lead to the development of effective π–π stacking interactions. A solution containing the EB–DNA adduct presents an intense fluorescence emission band at 592 nm when excited at λex = 540 nm. The addition of a compound intercalating to DNA equally or more tightly than EB into this solution may induce changes to the emission band which are monitored, in order to gain insight into its competition with EB for the DNA intercalation site.
The fluorescence emission spectra of pretreated EB–DNA ([EB] = 20 µM, [DNA] = 26 µM) were recorded in the presence of increasing amounts of the complexes (representatively shown for complex 1 in Figure 6A).
The Stern–Volmer (KSV) constants (Table 6) of the complexes were calculated with the Stern–Volmer equation (Equation (S2)) and Stern–Volmer plots. The KSV values are relatively high (of the […] magnitude), indicating a tight binding to CT DNA. […] The EB–DNA quenching constants (kq) of the compounds (Table 6) were calculated with Equation (S3) (considering τo = 23 ns as the EB–DNA fluorescence lifetime); the kq values are higher than 10^10 M^−1 s^−1 [56], proposing the existence of a static quenching mechanism, which may confirm the interaction with the fluorophore and the displacement of EB. […]
S2Binding studies with CT DNA […]
S2.3 EB -displa cement studie s
The competition of the complexes with EB was investigated by fluorescence emission spectroscopy in order to examine whether the compounds can displace EB from its DNA-EB conjugate. The CT DNA-EB complex was formed by pre-treating 20 μM EB and 26 μM CT DNA in buffer (150 mM NaCl and 15 mM trisodium citrate at pH = 7.0).
The possible displacement of EB by the compounds and su bseq uently t he ir intercalating effect was studied by the stepwise addition of a certain amount of the solution of each […]
compound into the solution of the CT DNA-EB adduct. The solut ions were excited at 540 nm and the emission was monitored from 550-700 nm with λmax= 592- 595 nm and the effe ct of the addition of each compound to the CT-DNA EB solution was recorded. The […]
solution or in the presence of CT DNA or EB under the same experimental conditions (λ ex = 540 nm); therefore, the observed quenching of the EB-DNA solution may be attributed to the displacement of EB from its EB -DNA add uct.
The Stern-Volmer constants (KSV, in M -1) were calculated according by the linear Stern-Volmer equation (eq. S2) [S 4] and the respect ive plots Io/I versus [ compound].
Io =1+ k τ [Q] =1+ K [Q] (eq. S2) […]
where Io and I are the emission intensit ies of the EB-DNA solut ion in the absence and the presence of the compounds , respectively, τo= the average lifetime of the emitting system without the quencher and kq = the quenching constant. Taking τo = 23 ns as the fluorescence lifetime of the EB-DNA adduct [S5], the quenching co nstants (k q, in M -1s-1) of the compounds were calculated according to eq. S3 [S 4]:
S3Albumin -binding studies
In order to investigate if the compounds can bind to carrier proteins like serum albumins, we carried out albumin binding study by tryptophan fluorescence quenching experiments using bo vine serum albumin (BSA, 3 μM) in buffer (containing 15 mM trisodium citrate and 150 mM NaCl at pH 7.0). The quenching of the emission intensity of tryptophan residues of BSA at 343 nm was monitored using the co mpounds as que ncher s with increasing concentration [S4]. The fluo rescence emission spectra of the compounds were also recorded with λex = 295 nm. No fluorescence emission band was recorded and thus it was not related to the compounds . The influence of the inner-filter effect [S6] on the measurements wa s evaluated by equation S4.
Where Icorr = corrected intensity, Imeas = the measured intensity, c = the concentration of the quencher, d = the cuvette (1 cm), ε (λexc ) and ε(λe m) = the ε of the quencher at the excitation […]

[2] = ABTS radical cation scavenging assay; type: biochemical; conditions: compound 0.1 mM, 1 min
Source text: For the above reasons, the antioxidant ability of 5–F–saloH and Cu(II) complexes 1–5 has been evaluated via their scavenging activity towards DPPH and ABTS radicals, as well as the ability to reduce H2O2, and in comparison with that of well-known antioxidant agents such as nordihydroguaiaretic acid (NDGA), butylated hydroxytoluene (ΒHΤ), 6–hydroxy–2,5,7,8–tetramethylchromane–2–carboxylic acid (trolox) and L–ascorbic acid (these are the most commonly used standard reference antioxidant agents). The DPPH-radical assay was developed in the 1950s and this method has been used to assess the antioxidant capacity of several metal complexes. The DPPH–scavenging ability of compounds has often been related to their ability to prevent ageing, cancer and inflammation. The ability of a compound to scavenge the cationic ABTS radicals (ABTS^+●) has been considered a measure of its total antioxidant activity. Further, hydrogen peroxide has the ability to penetrate biological membranes and, although it is not very reactive itself, it can sometimes be toxic since it may give rise to hydroxyl radicals in cells. For this reason, the removal of H2O2 is very important for the protection of living systems. When a compound is incubated with H2O2 using a peroxidase assay system, the loss of H2O2 can be measured.
S1 Antioxidant activity assay
The antioxidant activity of the compounds was evaluated via their ability to scavenge in vitro free radicals such as DPPH and ABTS and to reduce H 2O2. All the experiments were carried out at least in triplicate and the standard deviation of absorbance was less than 10% of the mean. […]
S1.2 Assay of radical cation ABTS-scavengin g activity
The ABTS assay was performed to determine the activity of the compounds to scavenge the radical cation ABTS. Initially, a water solution of ABTS was prepared (2 mM). ABTS radical cation (ABTS+·) was produced by the reaction of ABTS stock solution with potassium persulfate (0.17 mM) and the mixture was stored in the dark at room temperature for 12-16 h before its use. The ABTS was oxidized incompletely because the stoichiometric reaction ratio of ABTS and potassium persulfate is 1:0.5. The absorbance became maximal and stable only after more than 6 h of reaction although the oxidation of the ABTS started immediately. The radical was stable in this form for more than 2 days when allowed to stand in the dark at room temperature. Afterwards, the ABTS+· solution was diluted in ethanol to an absorbance of 0.70 at 734 nm and 10 μL of diluted compounds or standards (0.1 mM) in DMSO were added. The absorbance was recorded out exactly 1 min after init ial m ix in g [S 1]. The ABTS radical scavenging act ivit y was expressed as the percentage inhibition of the absorbance of the initial ABTS solution (ABTS%). Trolox was used as an appropriate standard. […]

Solubility in solvents = type: physicochemical

SMILES | Stern–Volmer constant Ksv (EB–DNA) [1] | ΔΙ/Ιο, percentage of EB–DNA fluorescence quenching [1] [%] | EB–DNA quenching constant kq [1] | EB–DNA relative fluorescence emission intensity I/Io remaining (% of initial) [1] [%] | ABTS%, % ABTS–scavenging activity [2] [%] | Solubility in DMSO and DMF (Solubility in solvents) | Solubility in MeOH (Solubility in solvents)
O=Cc1cc(F)ccc1[O-].O=Cc1cc(F)ccc1[O-].[Cu+2] [Complex 1, [Cu(5–F–salo)2]] | 1.56 (±0.02) × 10^5 M^−1 | 44.8 | 6.78 (±0.09) × 10^12 M^−1 s^−1 | 55.2 | 78.89 ± 0.18 | soluble | 
O=Cc1cc(F)ccc1[O-].O=[N+]([O-])[O-].[Cu+2].c1cnc2c(c1)ccc1cccnc12 [Complex 4, [Cu(5–F–salo)(phen)(NO3)]] | 6.77 (±0.07) × 10^4 M^−1 | 48.4 | 2.94 (±0.03) × 10^12 M^−1 s^−1 | 51.6 | 48.14 ± 0.35 | soluble | 
O=Cc1cc(F)ccc1[O-].[Cl-].[Cu+2].c1ccc(Nc2ccccn2)nc1 [Complex 2, [Cu(5–F–salo)(bipyam)Cl]] | 6.23 (±0.11) × 10^4 M^−1 | 44.5 | 2.71 (±0.05) × 10^12 M^−1 s^−1 | 55.5 | 48.89 ± 0.38 | soluble | partially soluble
O=Cc1cc(F)ccc1[O-].O=[N+]([O-])[O-].[Cu+2].c1ccc(-c2ccccn2)nc1 [Complex 5, [Cu(5–F–salo)(bipy)(NO3)]] | 3.14 (±0.06) × 10^4 M^−1 |  | 1.36 (±0.03) × 10^12 M^−1 s^−1 |  | 7.36 ± 0.08 |  | 
CO.Cc1ccc2ccc3ccc(C)nc3c2n1.O=Cc1cc(F)ccc1[O-].[Cl-].[Cu+2] [Complex 3, [Cu(5–F–salo)(neoc)Cl].CH3OH] | 3.35 (±0.05) × 10^4 M^−1 | 49.1 | 1.46 (±0.02) × 10^12 M^−1 s^−1 | 50.9 | 46.03 ± 0.60 | soluble | partially soluble
